Common to all, as to assay type: biochemical
Series [1] deals with T1, α-ketoamide reductase (Saccharomyces cerevisiae, UniProt Q07551).
T1 construct: 500 g of live baker's yeast was purchased from Oriental yeast and the fungal cells were used to purify the enzyme; tissue Oriental Yeast; host or cells: live baker's yeast cells; enzyme purified to a single SDS-PAGE band
T1 sequence (Q07551 1-312): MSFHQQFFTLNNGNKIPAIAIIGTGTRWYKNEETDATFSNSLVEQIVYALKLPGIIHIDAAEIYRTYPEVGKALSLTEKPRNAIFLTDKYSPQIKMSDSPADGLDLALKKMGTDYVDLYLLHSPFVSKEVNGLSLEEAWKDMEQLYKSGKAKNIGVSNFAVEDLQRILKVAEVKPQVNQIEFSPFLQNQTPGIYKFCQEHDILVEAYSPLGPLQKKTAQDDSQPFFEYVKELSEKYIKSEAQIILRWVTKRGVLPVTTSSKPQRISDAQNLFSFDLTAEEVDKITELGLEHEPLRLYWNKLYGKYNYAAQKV
As to the kind of experiment: Substrate specificity of α-ketoamide reductase (relative reducing activity). The conditions noted are these: activity of reducing 2-chlorobenzoyl formamide taken as 100, substrate concentration 1 mM. Here is the method: (§1) The enzyme is incubated in a reaction solution containing 100 mM potassium phosphate buffer (pH 6.5), 0.2 mM NADPH, and 1 mM 2-chlorobenzoyl formamide at 30° C. Adecrease in NADPH concentration is assessed by the decrease in absorbance at 340 nm. 1 U is defined as the amount of enzyme required to catalyze the decrease of 1 μmol NADPH in one minute.
The enzyme obtained in Example 1 was incubated with any one of various α-ketoamides, α-ketoesters, β-ketoesters, aldehydes, ketones, and others. The reducing activity is represented as a relative activity when the activity of reducing 2-chlorobenzoyl formamide is taken as 100.

Series [2] has as its target T1, α-ketoamide reductase. As to the kind of experiment: Stereoselectivity of α-ketoamide reductase (optical purity of reduction product). The settings on record: for Optical purity (%): product of reduction, 0.2 U purified enzyme, 10 μmol substrate, 10 μmol NADPH, pH 7.0, 37° C., 6 hours. As to the method:
0.2 U of the purified enzyme and each of various α-ketoamides and α-ketoesters (10 μmol each) were incubated in 0.5 ml of 0.1 M potassium phosphate buffer (pH 7.0) in the presence of 10 μmol NADPH at 37° C. for 6 hours. The resulting α-hydroxy amides and α-hydroxyesters were extracted with ether, and then the optical purity of each compound was determined.
The optical purity was determined by the procedure described below.
The optical purity of 2-chloromandelamide was determined by chiral HPLC method or chiral GC method. The chiral HPLC method comprises chromatography using CHIRALPAK AS-H (DAICEL CHEMICAL INDUSTRIES, LTD.). The elution was carried out using a mixed solution of n-hexane and ethanol (85:15) at a flow rate 1.0 mL/min and a column temperature of 25° C. The elution peak for the compound was detected by UV absorbance at 254 nm. Under these conditions, 2-chloromandelamide was eluted 7.5 minutes (R-isomer) and 10.1 minutes (S-isomer) after the start of elution.
The chiral GC method comprises chromatography using GAMMA DEX 225 (SUPELCO; 30 m×0.25 mm×0.25 μm film thickness) under the following conditions: column temperature, 190° C.; injection temperature, 220° C.; detection temperature 220° C.; carrier gas, He/1.0 kg/cm^2. Under the conditions described above, the S-isomer was eluted 27.0 minutes, and the R-isomer was eluted 29.3 minutes after the start of the elution.
The optical purities of the other α-hydroxyesters were determined by the chiral GC method described below using Chirasil-DEX CB column (Varian; […]×0.25 μm film thickness). GAMMA DEX 225 was used to determine the optical purities of ethyl lactate (injection temperature, 180° C.; column temperature, […]; detection temperature, 180° C.; R-isomer, 6.13 minutes; S-isomer, 6.82 minutes), ethyl 2-hydroxybutyrate (injection temperature, 180° C.; column temperature, 100° C.; detection temperature, 180° C.; R-isomer, 5.88 minutes; S-isomer, 6.32 minutes), ethyl 2-hydroxyvalerate (injection temperature, 180° C.; column temperature, 110° C.; detection temperature, 180° C.; R-isomer, 6.17 minutes; S-isomer, 6.88 minutes), ethyl 2-hydroxy heptanoate (injection temperature, 180° C.; column temperature, 120° C.; detection temperature, 180° C.; R-isomer, 11.20 minutes; S-isomer, 12.00 minutes), and 2-hydroxyisovalerate (injection temperature, 180° C.; column temperature, 90° C.; detection temperature, 180° C.; R-isomer, 10.42 minutes; S-isomer, 10.89 minutes).

Series [3] is described as follows: pH and temperature dependency and stability of α-ketoamide reductase. As to the method: The pH of the reaction solution was altered using 0.1 M sodium acetate buffer (pH 4.0-5.5), potassiumphosphate buffer (pH 5.5-7.5), Tris-hydrochloride buffer (pH 7.5-9.0), and glycine-potassium hydroxide buffer (pH 9.0-10.5) to assess the pH dependency of the 2-chlorobenzoyl formamide-reducing activity of the enzyme obtained in Example 1. The activity at each pH was determined as a relative activity when the maximal activity was taken as 100. The optimal pH (pH range in which the relative activity is 80% or higher) was 5.5-6.5.
The enzyme obtained in Example 1 was assessed for 2-chlorobenzoyl formamide-reducing activity under standard reaction conditions at various temperatures. The activity at each temperature was determined as a relative activity when the maximal activity was taken as 100. The optimal temperature (temperature range in which the relative activity is 80% or higher) was 35 to 47° C.
The purified enzyme was incubated in 0.1 M sodium acetate buffer (pH 4.0-5.5), 0.1 M potassium phosphate buffer (pH 6.0-7.5), 0.1 M Tris-hydrochloride buffer (pH 8.0-9.0), or 0.1 M glycine-potassium hydroxide buffer (pH 9.5-10.5) at 37° C. for 10 minutes. Then, the enzymatic activity was determined as a relative activity when the activity before the treatment was taken as 100. The stable pH range (pH range in which the residual activity is 80% or higher) was pH 5.5 to 9.5.
The purified enzyme was incubated in 100 mM potassium phosphate buffer (pH 7.0) at 20 to 50° C. for 30 minutes. The temperature range in which the enzyme activity is stable (temperature range in which the residual activity is 80% or higher) falls within the range comprising 40° C. and lower temperatures.

A short description of series [4]: 2-chlorobenzoyl formamide-reducing activity of enzyme preparations. The conditions noted are these: purified enzyme, 1 mM 2-chlorobenzoyl formamide, 0.2 mM NADPH, pH 6.5, 30° C. Here is the method: as §1
Cells of E. coli DH10B strain containing pSE-YDL1 or pSG-YDL1 were grown on LB medium containing ampicillin. Cells were induced with 0.1 mM IPTG for 4 hours, and then the cells were harvested by centrifugation.
Each sample of cells was suspended in cell lysis buffer (50 mM potassium phosphate buffer (pH 8.0) containing 0.02% 2-mercaptoethanol). The cells were crushed by sonication. Then, the lysates were centrifuged and the resulting supernatants were saved as cell-free extracts.

Turning to `NC(=O)C(=O)c1cccc(Cl)c1`, the “Reducing activity (%)” value in series [1] was found to be 143%.
Regarding `NC(=O)C(=O)c1ccc(Cl)cc1`, the “Reducing activity (%)” value in series [1] came to 71%.
On to `NC(=O)C(=O)c1ccccc1`, for which the “Reducing activity (%)” value in series [1] is given as 59%.
As for `CCCCC(=O)C(=O)OCC`, in series [1], the “Reducing activity (%)” value is given as 49%.
Regarding `CC(C)C(=O)C(=O)O`, the “Reducing activity (%)” value in series [1] worked out at 0%.
Still for that read-out and setting: the same measure for `CCOC(=O)CC(=O)CCl`: 4%.
Same read-out and setting: the same measure for `CCOC(=O)CC(=O)c1ccccc1`: 0%; for `CCOC(=O)C(C)C(C)=O` (centres unmarked): 0%; for `CCOC(=O)C(Cl)C(C)=O` (centres unmarked): 0%.
Still for that read-out and setting: the same measure for `C=CCC(C(C)=O)C(=O)OCC` (centres unmarked): 0%; for `O=CC(=O)c1ccccc1`: 120%.
As to `O=C1CCCCC1=O`, the “Reducing activity (%)” value in series [1] worked out at 10%.
Regarding `CC1(C)COC(=O)C1=O`, the “Reducing activity (%)” value in series [1] amounted to 19%.
As for `CC(=O)c1ccccc1`, the “Reducing activity (%)” value in series [1] stood at 0%.
`O=C(CCl)c1ccccc1`: the “Reducing activity (%)” value in series [1] amounted to 0%.
For `CC(=O)COC(C)=O`, in series [1], the “Reducing activity (%)” value came to 0%.
Same read-out and setting: the same measure for `COCC(C)=O`: 0%.
In the case of `NC(=O)C(=O)c1ccccc1Cl` [2-chlorobenzoyl formamide], the “purity of (R)-2-chloromandelamide produced” value in series [2] (purified enzyme (summary)) is ≥ 99%. For the same molecule, in series [1], the “Reducing activity (%)” value is reported as 100%.
Regarding `CCOC(=O)C(=O)c1ccccc1` [drawing 5], in series [1], the “Reducing activity (%)” value is 32%.
Still for that read-out and setting: the same measure for `CCOC(=O)C(C)=O` [drawing 6]: 9%; for `CCOC(=O)C(=O)CC` [drawing 7]: 33%.
Take `CCCC(=O)C(=O)OCC` [drawing 8]: in series [1], the “Reducing activity (%)” value is 46%.
Same read-out and setting: the same measure for `CCCCCC(=O)C(=O)OCC` [drawing 10]: 50%; for `CCOC(=O)C(=O)C(C)C` [drawing 11]: 71%.
Take `NC(=O)C(=O)c1ccccc1Cl` [drawing 25]: in series [2], the “Optical purity (%)” value was >99%.
Same read-out and setting: the same measure for `CCOC(=O)C(C)=O` [drawing 26]: >99%; for `CCOC(=O)C(=O)CC` [drawing 27]: >99%.
For `CCCC(=O)C(=O)OCC` [drawing 28], the “Optical purity (%)” value in series [2] is recorded as 98%.
Consider `CCCCCC(=O)C(=O)OCC` [drawing 29], for which, in series [2], the “Optical purity (%)” value was >99%.
Same read-out and setting: the same measure for `CCOC(=O)C(=O)C(C)C` [drawing 30]: >99%.
The same measure, in the same setting: the same measure for `CCOC(=O)C(=O)c1ccccc1` [drawing 31]: 97%.

B1: α-ketoamide reductase: NADPH-dependent α-ketoamide reductase purified from baker's yeast, encoded by YDL124w (SEQ ID NO: 2) (protein, listed as Saccharomyces cerevisiae)
chain: MSFHQQFFTLNNGNKIPAIAIIGTGTRWYKNEETDATFSNSLVEQIVYALKLPGIIHIDAAEIYRTYPEVGKALSLTEKPRNAIFLTDKYSPQIKMSDSPADGLDLALKKMGTDYVDLYLLHSPFVSKEVNGLSLEEAWKDMEQLYKSGKAKNIGVSNFAVEDLQRILKVAEVKPQVNQIEFSPFLQNQTPGIYKFCQEHDILVEAYSPLGPLQKKTAQDDSQPFFEYVKELSEKYIKSEAQIILRWVTKRGVLPVTTSSKPQRISDAQNLFSFDLTAEEVDKITELGLEHEPLRLYWNKLYGKYNYAAQKV
Consider B1, for which the “temperature range in which the residual activity is 80% or higher” value in series [3] (100 mM potassium phosphate buffer (pH 7.0), 30 minutes) is ≤ 40 °C. In series [3] (2-chlorobenzoyl formamide-reducing activity), the “optimal pH (pH range in which the relative activity is 80% or higher)” value is given as 5.5-6.5. The “stable pH range (pH range in which the residual activity is 80% or higher)” value in series [3] (37° C. for 10 minutes) is given as 5.5 to 9.5. Moreover, the “optimal temperature (temperature range in which the relative activity is 80% or higher)” value in series [3] (standard reaction conditions) lay in the range of 35 to 47 °C. Moreover, the specific activity result in series [4] was “about 105 U/mg”; in series [4] (listed as purified enzyme), 105 U/mg.

(Values after patent US20080261286A1, “Methods for producing optically active alpha-hydroxy amides” (Daicel Chemical Industries, Ltd., priority 2004, published 2008).)
